Data on 20 compounds can be found in PubChem BioAssay (NCI).

Holding throughout (assay): NCI tumour cell line growth inhibition, 48 h
Assay [1] concerns M19-MEL melanoma.
Assay [2] deals with XF 498 CNS.
Assay [3] relates to SNB-78 CNS.
Assay [4] has as its system DMS 114 small cell lung.
Assay [5] relates to MDA-N.
In assay [6] the test system is HOP-18 NSCLC.
Assay [7] concerns LXFL 529 NSCLC.
Assay [8] relates to DMS 273 small cell lung.
Assay [9] deals with RXF-631 renal.
Assay [10] relates to P388/ADR leukemia.
The subject of assay [11] is SN12K1 renal.

Structures are written as SMILES.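 Growth conditions: 96-well plates. Treatment: test compound, 48 hours, 5 concentrations. Analysis: linear interpolation between bracketing concentrations; unreached endpoints set to highest concentration. GI50 is the concentration that inhibits growth by half. TGI denotes the concentration required for complete inhibition of growth.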 The source made the active and inactive calls. Rule as the data show it: active = GI50 below about 0.43 µM; inactive = the rest.

On to `N#Cc1cn(-c2c3ccccc3nc3ccccc23)c(=O)[nH]c1=O`, for which the TGI in [1] stood at 46.1 µM; in [2], 25.2 µM; in assay [3] it was 49.8 µM; in assay [4], 35.4 µM.
For `C=C1C(=O)C2(C)OC2(C)C1C(=O)O` (centres undefined), the TGI in [5] is greater than 100 µM.
Turning to `CC1(C)CC(N2CCN(C3CC(C)(C)NC(C)(C)C3)CC2)CC(C)(C)N1`, the TGI in assay [2], in assay [3], in assay [6], in assay [7], in assay [8] and in [9] was greater than 100 µM each time. For the same compound, the TGI in [4] was greater than 100 µM.
In the case of `O=C(O)COc1ccc(C(=O)/C(SS/C(C(=O)c2ccc(OCC(=O)O)c(Cl)c2Cl)=C2\C=C(c3ccccc3Cl)SS2)=C2/C=C(c3ccccc3Cl)SS2)c(Cl)c1Cl`, the TGI in assay [1] is greater than 66.6 µM; in assay [2], 50.4 µM; in [3] it was 52.5 µM; in assay [6], greater than 72.4 µM; in [7], 19.9 µM; in assay [8], 56.9 µM. For the same compound, the figures for the TGI in assay [9] and in [4] were greater than 84.9 µM and 26.1 µM, respectively.
Compound `CCCCCCSc1nc(COC(=O)NC)c(COC(=O)NC)n1C` displayed a TGI in assay [5] greater than 100 µM.
As for `CCc1ccc([O-])c(C=NCCCN(C)CCCN=Cc2cc(C)ccc2[O-])c1.[Co+3].[N-]=[N+]=[N-]`, the GI50 was greater than 150 µg/mL in [1]; 82.9 µg/mL in assay [10]; greater than 150 µg/mL in [3]; 21.7 µg/mL in assay [11]; 50 µg/mL in assay [5]; 34.7 µg/mL in assay [8]. The GI50 in assay [4] was 136 µg/mL. In addition, the TGI in assay [1] was greater than 150 µg/mL; in [10] it was greater than 150 µg/mL; in assay [3] it was greater than 150 µg/mL; in assay [11], 54.8 µg/mL; in [5], 50 µg/mL; in [8], greater than 150 µg/mL. In [4], this compound showed a TGI greater than 150 µg/mL. The result in [2] and in assay [6] was inactive.
On to `Cc1ccc2nc3c(C)cc(=O)cc-3sc2c1`, for which the TGI in assay [1] is 31 µM; in assay [3] it was greater than 100 µM; in [6], greater than 100 µM; in assay [7], greater than 100 µM; in assay [8] it was greater than 100 µM; in [9] it was greater than 100 µM. In assay [4], this compound came in with a TGI of 45.5 µM.
In assay [5], `Cc1c(O)c(Br)c(C)c(O)c1Br` (tested in a mixture with another compound) returned a TGI of 3.26 µM.
Consider `NC(=O)c1cc([N+](=O)[O-])cc([N+](=O)[O-])c1`, for which the TGI is 46.8 µM in assay [1]; greater than 100 µM in [7]; greater than 100 µM in assay [8]; greater than 100 µM in assay [9]; greater than 100 µM in assay [4].
`CC1(C)OC(=O)C(=Cc2ccc([N+](=O)[O-])s2)C(=O)O1` yielded a TGI in assay [5] of 32.5 µM.
`CC12CC(=O)C3C(CCC4=CC(=O)CCC43C)C1CC=C2CC(=O)O` (centres undefined) had a TGI in [5] greater than 100 µM.
On the same count and under the same terms, the value for `CC(C)COC(c1ccc2c(c1)OCO2)C(C)Br` (centres undefined) was 53.8 µM; that for `COC(=O)C1(C)CCCC2(C)c3cc(OC)ccc3C(=O)C(Br)C12` (centres undefined) was greater than 10 µM.
Take `O=C1CC[C@@H](NC(=O)Cc2ccccc2)C(=O)N1`: the TGI in [1], in assay [2], in [6], in assay [7] and in assay [8] was greater than 100 µM each time.
On to `CCCCCCCCCCCC(=O)OC(COC(N)=O)COc1ccc(Cl)cc1` (centres undefined), for which the TGI is 32.9 µM in assay [1]; 45.8 µM in assay [2]; 84.8 µM in assay [3]; 95.7 µM in assay [6]; 45.2 µM in assay [7]; 40.9 µM in assay [8]. In addition, the TGI in assay [9] is 67.7 µM; in assay [4] it was 33.1 µM.
Turning to `O=C(/C=C/c1ccc(O)cc1)c1cc(Cl)ccc1O`, the TGI is greater than 100 µM in assay [1]; 85 µM in assay [2]; greater than 100 µM in [3]; greater than 100 µM in [6]; greater than 100 µM in assay [7]; 67.4 µM in assay [4].
`Cc1ccc(NC(=O)C(=O)CC(=O)c2ccccc2)cc1C`: the TGI in assay [1], in assay [2], in [3], in [6], in [7] and in assay [8] was greater than 100 µM each time. For the same compound, the TGI in assay [4] was greater than 100 µM.
Turning to `c1ccc2c(c1)N=C(c1ccc3ccccc3c1)CC(c1cccc3ccccc13)S2` (centres undefined), the TGI in assay [1], in [2], in assay [6], in assay [7], in [8] and in [9] was greater than 100 µM in each case. In addition, the TGI in assay [4] was greater than 100 µM.
On to `COc1cc2c(cc1O)C1CC(CC3CCCCN31)OC(=O)/C=C\c1ccc(O)c-2c1` (centres undefined), for which the TGI in [5] was greater than 100 µM.
`Cn1cnc([N+](=O)[O-])c1Sc1nc2ccc([N+](=O)[O-])cc2[nH]1`: the TGI in assay [1] is 44.5 µM; in assay [2] it was 28.9 µM; in assay [3] it was 81 µM; in [6], greater than 100 µM; in [7], 26.9 µM; in assay [8], 4.68 µM.
